In publication PMC5298035 (Clinical Pharmacology in Drug Development, 2016):
Where two headings read alike, the source gives them in different places.

Legend:
CYP3A4 [1] = details: cited from earlier work
CYP3A4 [2] = details: cited from earlier work; remark: listed apart in the source
CYP3A7 = details: CYP3A7-expressing human liver microsomes; ref data on file; cited from earlier work
CYP1A2 [3] = details: pooled human liver microsomes; ref data on file; cited from earlier work
[4] = active drug released from prodrug; cited from earlier work
Safety [5] = type: in vivo, human; details: ethinyl estradiol/norethindrone study, by treatment period
CYP2C9 [6] = details: pooled human liver microsomes; ref data on file; cited from earlier work
CYP2E1 = details: pooled human liver microsomes; ref data on file; cited from earlier work
[7] = cited from earlier work
[8] = type: in vivo, human
CYP2C19 [9] = details: pooled human liver microsomes; ref data on file; cited from earlier work
[10] = type: in vivo, human; remark: listed apart in the source
CYP2A6 = details: pooled human liver microsomes; ref data on file; cited from earlier work
[11] = Phase 1 ethinyl estradiol/norethindrone interaction study: plasma PK; type: in vivo, human; details: for AUCτ: n = 23, arithmetic mean (SD)
CYP2C9 [12] = details: cultured human hepatocytes; ref data on file; cited from earlier work
CYP2D6 = details: pooled human liver microsomes; ref data on file; cited from earlier work
Safety [13] = type: in vivo, human; details: rifampin study, by treatment period
CYP3A4 [14] = molecular target: T1, CYP3A4 (Homo sapiens, UniProt P08684); details: CYP3A4-expressing human liver microsomes; ref data on file; cited from earlier work
T1 sequence (P08684 whole entry): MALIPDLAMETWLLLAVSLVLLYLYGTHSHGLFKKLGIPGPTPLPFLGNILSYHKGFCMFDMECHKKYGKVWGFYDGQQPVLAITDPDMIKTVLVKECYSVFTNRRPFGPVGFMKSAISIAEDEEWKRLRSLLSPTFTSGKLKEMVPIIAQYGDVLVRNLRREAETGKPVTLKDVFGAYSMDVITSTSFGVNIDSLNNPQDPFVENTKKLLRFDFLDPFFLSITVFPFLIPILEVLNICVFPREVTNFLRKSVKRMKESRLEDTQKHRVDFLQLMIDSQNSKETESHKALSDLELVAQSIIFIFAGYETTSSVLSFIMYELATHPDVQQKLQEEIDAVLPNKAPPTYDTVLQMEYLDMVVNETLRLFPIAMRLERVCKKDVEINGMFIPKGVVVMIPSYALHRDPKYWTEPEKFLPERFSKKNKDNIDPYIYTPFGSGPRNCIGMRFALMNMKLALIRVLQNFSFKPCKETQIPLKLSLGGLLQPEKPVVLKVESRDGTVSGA

CYP3A4 [15] = molecular target: T1, CYP3A4; test: Clinical CYP3A4 drug-drug interaction classification; type: in vivo
CYP3A5 = details: CYP3A5-expressing human liver microsomes; ref data on file; cited from earlier work
CYP2B6 [16] = details: CYP2B6-expressing human liver microsomes; ref data on file; cited from earlier work
CYP4A11 = details: pooled human liver microsomes; ref data on file; cited from earlier work
CYP2C8 [17] = details: cultured human hepatocytes; ref data on file; cited from earlier work
CYP2C19 [18] = details: cultured human hepatocytes; ref data on file; cited from earlier work
P-glycoprotein = details: in vitro; ref unpublished data; cited from earlier work
CYP2B6 [19] = details: cultured human hepatocytes; ref data on file; cited from earlier work
CYP1A2 [20] = details: cultured human hepatocytes; ref data on file; cited from earlier work
CYP2C9 [21] = details: in vitro; ref unpublished data; cited from earlier work
[22] = coadministration with lopinavir/ritonavir; cited from earlier work
[23] = Phase 1 rifampin interaction study: plasma PK of isavuconazole; type: in vivo, human
CYP3A4 [24] = molecular target: T1, CYP3A4; details: cultured human hepatocytes; ref data on file; cited from earlier work
CYP2B6 [25] = details: in vitro; ref unpublished data; cited from earlier work
Safety [26] = type: in vivo, human; details: ketoconazole study, by treatment period
Safety [27] = type: in vivo, human; details: midazolam study, by treatment period
CYP2C8 [28] = details: CYP2C8-expressing human liver microsomes; ref data on file; cited from earlier work
[29] = active drug released from prodrug; cited from earlier work; remark: listed apart in the source
[30] = both, human, plasma, po, 200 mg
[31] = isavuconazole + ketoconazole vs isavuconazole alone, (90% CI)
[32] = presence vs absence of ketoconazole 200 mg BID
[33] = coadministration with rifampin 600 mg QD vs isavuconazole alone
[34] = isavuconazole + rifampin vs isavuconazole alone, (90% CI)

Structure (SMILES): C[C@@H](c1ncncc1F)[C@](O)(Cn1cncn1)c1ccc(F)cc1F [voriconazole]
- increase in midazolam AUC on coadministration (CYP3A4 [1]): approximately 10 fold
- increases in ethinyl estradiol and norethindrone on coadministration (CYP3A4 [2]): less than 2 fold

Structure (SMILES): C[C@@H](c1nc(-c2ccc(C#N)cc2)cs1)[C@](O)(Cn1cncn1)c1cc(F)ccc1F [Isavuconazole, isavuconazole]
- ratio of the remaining isavuconazole (CYP3A7): > 98%
- correlation of isavuconazole metabolism with CYP1A2 activity (CYP1A2 [3]): No correlations
- solubility (in words) [4]: poorly soluble
- subjects who experienced TEAEs (Safety [5]): 6 n
- subjects with drug-related TEAEs (Safety [5]): 3 subjects
- correlation of isavuconazole metabolism with CYP2C9 activity (CYP2C9 [6]): No correlations
- correlation of isavuconazole metabolism with CYP2E1 activity (CYP2E1): No correlations
- Oral bioavailability [7]: 98%
- food or pH effect on absorption [7]: no evidence of a clinically relevant food or pH effect
- AUC(0-inf) [8, 30]: 84800 ng·h/mL
- AUC(0-t) [8, 30]: 64900 ng·h/mL
- Cmax [8, 30]: 2200 ng/mL
- Tmax [8, 30]: 2 h
- half-life [8, 30]: 117 h
- CL/F ([8]; isavuconazole 200 mg single oral dose alone, n = 12, arithmetic mean (SD)): 2.5 (0.6) L/h
- Geometric least-squares mean ratio, AUC0-∞ [8, 31]: 522 (409, 666) %
- Geometric least-squares mean ratio, AUClast [8, 31]: 373 (319, 435) %
- Geometric least-squares mean ratio, Cmax [8, 31]: 109 (93, 127) %
- increase in mean AUC0-∞ [8, 32]: 422%
- increase in mean AUClast [8, 32]: 273%
- increase in mean Cmax [8, 32]: 9%
- correlation of isavuconazole metabolism with CYP2C19 activity (CYP2C19 [9]): No correlations
- Cmax ([10]; both, human, plasma, oral, 200 mg): 5200 ng/mL
- mean AUCτ in the presence vs absence of midazolam (in words) ([10]; isavuconazole 200 mg QD): comparable
- mean Cmax in the presence vs absence of midazolam (in words) ([10]; isavuconazole 200 mg QD): comparable
- correlation of isavuconazole metabolism with CYP2A6 activity (CYP2A6): No correlations
- Cmax ([11]; female, human, plasma, oral, 200 mg): 5800 ng/mL
- AUCτ ([11]; isavuconazole 200 mg QD + ethinyl estradiol 35 μg/norethindrone 1 mg, day 13): 81.4 (19.0) h·μg/mL
- AUCτ ([11]; isavuconazole 200 mg QD alone, day 12): 80.8 (18.7) h·μg/mL
- maximum increase in CYP2C9 mRNA (CYP2C9 [12]): 3.1 fold
- maximum increase in diclofenac 4'-hydroxylase activity (CYP2C9) (CYP2C9 [12]): none
- correlation of isavuconazole metabolism with CYP2D6 activity (CYP2D6): No correlations
- subjects who experienced TEAEs (Safety [13]): 19 n
- subjects with drug-related TEAEs (Safety [13]): 17 n
- ratio of the remaining isavuconazole (CYP3A4 [14]): 33.8%
- classification as inhibitor of CYP3A4 (CYP3A4 [15]; from midazolam coadministration in healthy adults, in vivo): moderate inhibitor
- classification as substrate of CYP3A4 (CYP3A4 [15]; from rifampin and ketoconazole coadministration in healthy adults): sensitive substrate
- ratio of the remaining isavuconazole (CYP3A5): 68.4%
- ratio of the remaining isavuconazole (CYP2B6 [16]): > 98%
- correlation of isavuconazole metabolism with CYP4A11 activity (CYP4A11): No correlations
- maximum increase in CYP2C8 mRNA (CYP2C8 [17]): 4.3 fold
- maximum increase in amodiaquine N-dealkylase activity (CYP2C8) (CYP2C8 [17]): 2.6 fold
- increase in CYP2C19 mRNA levels (CYP2C19 [18]): No isavuconazole‐induced increases
- increase in S-(+)-mephenytoin 4'-hydroxylation activity (CYP2C19) (CYP2C19 [18]): No isavuconazole‐induced increases
- substrate of P-glycoprotein (P-glycoprotein): not a substrate
- maximum increase in CYP2B6 mRNA (CYP2B6 [19]): 11.4 fold
- maximum increase in bupropion hydroxylase activity (CYP2B6) (CYP2B6 [19]): 13.4 fold
- maximum increase in CYP1A2 mRNA (CYP1A2 [20]): 5.4 fold
- maximum increase in phenacetin O-dealkylase activity (CYP1A2) (CYP1A2 [20]): 2.8 fold
- substrate of CYP2C9 (CYP2C9 [21]): not a substrate
- increase in isavuconazole exposure [22]: approximately 2 fold
- decrease in mean AUC0-∞ [23, 33]: 97%
- decrease in mean AUClast [23, 33]: 97%
- decrease in mean AUCτ [23, 33]: 90%
- decrease in mean Cmax [23, 33]: 75%
- Geometric least-squares mean ratio, AUC0-∞ [23, 34]: 3 (2, 3) %
- Geometric least-squares mean ratio, AUClast [23, 34]: 3 (3, 3) %
- Geometric least-squares mean ratio, AUCτ [23, 34]: 10 (9, 11) %
- Geometric least-squares mean ratio, Cmax [23, 34]: 25 (23, 27) %
- Tmax ([23]; male, human, plasma, po): 2 h
- increase in CYP3A4 mRNA (CYP3A4 [24]): ≤ 6.4 fold
- increase in testosterone hydroxylation activity (CYP3A4) (CYP3A4 [24]): up to 3.4 fold
- substrate of CYP2B6 (CYP2B6 [25]): not a substrate
- subjects reporting TEAEs (Safety [26]): 2 (16.7%) subjects
- subjects who experienced TEAEs (Safety [27]): 10 n
- subjects with drug-related TEAEs (Safety [27]): 5 n
- ratio of the remaining isavuconazole (CYP2C8 [28]): > 98%
- permeability (in words) [29]: highly permeable
